{"source": "patent US7592342B2", "about": "“Quinoxaline derivatives as PI3 kinase inhibitors” (SmithKline Beecham Corporation, priority 2007, dated 2009)", "origin": "cited, not measured here", "target": "CK2 protein kinase (Homo sapiens, UniProt P68400)", "sequence (P68400 whole entry)": "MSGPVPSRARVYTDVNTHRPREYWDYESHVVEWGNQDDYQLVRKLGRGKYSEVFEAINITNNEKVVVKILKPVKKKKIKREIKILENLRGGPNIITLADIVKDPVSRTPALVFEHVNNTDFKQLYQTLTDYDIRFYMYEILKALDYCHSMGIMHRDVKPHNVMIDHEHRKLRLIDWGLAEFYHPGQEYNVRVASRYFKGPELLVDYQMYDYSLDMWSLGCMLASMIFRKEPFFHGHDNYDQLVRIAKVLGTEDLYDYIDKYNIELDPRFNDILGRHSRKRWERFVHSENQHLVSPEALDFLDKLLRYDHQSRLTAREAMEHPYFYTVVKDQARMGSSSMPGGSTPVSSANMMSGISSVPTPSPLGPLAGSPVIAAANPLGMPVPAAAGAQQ", "conditions": "LY294002, literature"}
{"compound": "O=c1cc(N2CCOCC2)oc2c(-c3ccccc3)cccc12", "note": "[LY294002]", "values": [{"measurement": "IC50", "result": "5 to 10", "unit": "µM"}]}
